From patent US12077483B2, “Modified amine lipids” (Intellia Therapeutics, Inc., priority 2018, dated 2024)

Tests used:
[1] = pKa of amine lipid by TNS fluorescence; type: physicochemical; settings: probe TNS (6-(p-toluidino)-2-naphthalenesulfonic acid sodium salt), unformulated amine lipid in ethanol, sodium phosphate buffers -9.0
Summary of the method: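 Unformulated amine lipid, about 100 μM final, in 0.1 M sodium phosphate buffers spanning pH 4.5–9.0 with TNS. Fluorescence read at ex 321/em 448 nm; normalized data fitted sigmoidally to give pKa.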

mouse TTR gene = test: In vivo editing in mouse liver, LNP with Cas9 mRNA and sgRNA G282, NGS; settings: Table 3; guide G282; CD-1 female mice, 0.1 mpk i.v., liver at 6 or 7 days; Exp. 1, 8, 9, 10
Procedure: (§1) LNPs were prepared using various amine lipids in a 4-component lipid system consisting of an ionizable lipid (e.g. an amine lipid), DSPC, cholesterol and PEG-2k-DMG. In assays for percent liver editing in mice, Cas9 mRNA and chemically modified sgRNA targeting a mouse sequence were formulated in LNPs, at either a 1:1 w/w ratio or a 1:2 w/w ratio.
(§2) The lipid components were dissolved in 100% ethanol with the lipid component molar ratios described below. The chemically modified sgRNA and Cas9 mRNA were combined and dissolved in 25 mM citrate, 100 mM NaCl, pH 5.0, resulting in a concentration of total RNA cargo of approximately 0.45 mg/mL. The LNPs were formulated with an N/P ratio of about 6, with the ratio of chemically modified sgRNA: Cas9 mRNA at either a 1:1 or 1:2 w/w ratio as described below.
(§3) CD-1 female mice, ranging from 6-10 weeks of age were used in each study. Animals were weighed and grouped according to body weight for preparing dosing solutions based on group average weight. LNPs were dosed via the lateral tail vein in a volume of 0.2 mL per animal (approximately 10 mL per kilogram body weight). The animals were periodically observed for adverse effects for at least 24 hours post dose.
(§4) For studies measuring in vivo editing in liver, CD-1 female mice were dosed at 0.1 mpk unless otherwise noted. Animals were euthanized at 6 or 7 days by exsanguinationvia cardiac puncture under isoflourane anesthesia. Liver tissue was collected from each animal for DNA extraction and analysis. Blood was collected into serum separator tubes or into tubes containing buffered sodium citrate for plasma as described herein. Cohorts of mice were measured for editing by Next-Generation Sequencing (NGS).
(§5) In brief, to quantitatively determine the efficiency of editing at the target location in the genome, genomic DNA was isolated and deep sequencing was utilized to identify the presence of insertions and deletions introduced by gene editing.
(§6) PCR primers were designed around the target site (e.g., B2M), and the genomic area of interest was amplified. Additional PCR was performed according to the manufacturer's protocols (Illumina) to add the necessary chemistry for sequencing. The amplicons were sequenced on an Illumina MiSeq instrument. The reads were aligned to the relevant reference genome (e.g., GRCm38) after eliminating those having low quality scores. The resulting files containing the reads were mapped to the reference genome (BAM files), where reads that overlapped the target region of interest were selected and the number of wild type reads versus the number of reads which contain an insertion, substitution, or deletion was calculated.
(§7) The editing percentage (e.g., the “editing efficiency” or “percent editing”) is defined as the total number of sequence reads with insertions or deletions over the total number of sequence reads, including wild type.
(§8) We assessed in vivo editing efficiency for materials delivered with formulations including various amine lipid compounds. Editing was measured using either G282 (SEQ ID No: 1) which targets the mouse TTR gene or G650 (SEQ ID No. 2) which targets the mouse B2M gene. Lipids described above were assessed for efficacy through in vivo editing experiments. LNPs were formulated at a 1:1 w/w ratio of sgRNA to Cas9 mRNA, and at an N/P ratio of about 6. Molar concentrations of lipids in the lipid component of the LNPs are expressed as mol % amine lipid/DSPC/cholesterol/PEG-2k-DMG, e.g. 50/10/38.5/1.5. The final LNPs were characterized to determine the encapsulation efficiency, polydispersity index, and average particle size according to the analytical methods provided above. Analysis of average particle size, polydispersity (PDI), total RNA content and encapsulation efficiency of RNA are shown in Table 2.
To assess whether the editing was dose responsive, experiments were performed in vivo at various LNP dose levels. […]

mouse TTR = test: Serum TTR ELISA in mice after LNP delivery; type: in vivo; settings: Table 3, guide G282, CD-1 female mice, 0.1 mpk i.v.; for Serum TTR: Exp. 1, 8, 9, 10; for Serum TTR % TSS: percentage of vehicle control (TSS)
Summary of the method: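 Female CD-1 mice received LNP at 0.1 mpk unless noted; serum was collected 6 or 7 days later. Total serum TTR was measured by mouse prealbumin ELISA at 10,000- and/or 2,500-fold dilution and is expressed as a percentage of vehicle control.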

mouse B2M gene = test: In vivo editing in mouse liver, LNP with Cas9 mRNA and sgRNA G650, NGS; settings: Table 3; guide G650; CD-1 female mice, 0.1 mpk i.v., liver at 6 or 7 days; Exp. 2-7
Procedure: as §1, §2, §3, §4, §5, §6, §7, §8

Row | pKa [1] | SMILES | Editing Mean % Indel (mouse TTR gene) [%] | Serum TTR (mouse TTR) [µg/mL] | Serum TTR % TSS (mouse TTR) [% TSS] | Editing Mean % Indel (mouse B2M gene) [%]
1 | 7.54 | CCCCC/C=C\C/C=C\CCCCCCCC(=O)OCC(COC(=O)CCCCCCC/C=C\C/C=C\CCCCC)OC(=O)CCC(CCCCCCCCCCCC)OC(=O)NCCCN(C)C (centres unmarked) [Compound 8, 2-((4-(((3-(dimethylamino)propyl)carbamoyl)oxy)hexadecanoyl)oxy)propane-1,3-diyl] | 0.1 | 745 | 84 | 
2 | 5.62 | CCCCC/C=C\C/C=C\CCCCCCCC(=O)OCC(COC(=O)CCCCCCC/C=C\C/C=C\CCCCC)OC(=O)CCC(CCCCCCCC)OC(=O)N(C)CCN(C)C (centres unmarked) [Compound 38, 2-((4-(((2-(dimethylamino)ethyl)(methyl)carbamoyl)oxy)dodecanoyl)oxy) propane-1,3-diyl (9Z,9′Z,12Z,12′Z)-bis(octadeca-9,12-dienoate)] | 26.7 | 301 | 39 | 
3 | 5.6 | CCCCC/C=C\C/C=C\CCCCCCCC(=O)OCC(COC(=O)CCCCCCC/C=C\C/C=C\CCCCC)OC(=O)CCC(CCCCCCCCCCCC)OC(=O)CCCN(CC)CC (centres unmarked) [Compound 11, 2-((4-((4-(diethylamino)butanoyl)oxy)hexadecanoyl)oxy)propane-1,3-diyl (9Z,9′Z,12Z,12′Z)-bis(octadeca-9,12-dienoate)] |  |  |  | 9.2
4 | 6.05 | CCCCC/C=C\C/C=C\CCCCCCCC(=O)OCC(COC(=O)CCCCCCC/C=C\C/C=C\CCCCC)OC(=O)CCCC(CCCCCCCCCCCC)OC(=O)NCC1CCCN1C (centres unmarked) [Compound 29, 2-((5-((((1-methylpyrrolidin-2-yl)methyl)carbamoyl)oxy)heptadecanoyl)oxy) propane-1,3-diyl (9Z,9′Z,12Z,12′Z)-bis(octadeca-9,12-dienoate)] |  |  |  | 3.6
5 | 6.19 | CCCCCC/C=C\COC(=O)CCCCCCCC(=O)OCC(COC(=O)CCCCCCCC(=O)OC/C=C\CCCCCC)OC(=O)CCC(CCCCCCCCCCCC)OC(=O)NCCN(C)CC (centres unmarked) [Compound 23, O′1,O1-(2-((4-(((2-(ethyl(methyl)amino)ethyl)carbamoyl)oxy)hexadecanoyl)oxy)propane-1,3-diyl) 9,9′-di((Z)-non-2-en-1-yl) di(nonanedioate)] |  |  |  | 7.3
6 | 5.9 | CCCCC/C=C\C/C=C\CCCCCCCC(=O)OCC(COC(=O)CCCCCCC/C=C\C/C=C\CCCCC)OC(=O)CCC(CCCCCCCCCCCC)OC(=O)NCCN(CC)CC (centres unmarked) [Compound 15, 2-((4-(((2-(diethylamino)ethyl)carbamoyl)oxy)hexadecanoyl)oxy)propane-1,3-diyl (9Z,9′Z,12Z,12′Z)-bis(octadeca-9,12-dienoate)] |  |  |  | 18.0
7 | 5.72 | CCCCC/C=C\C/C=C\CCCCCCCC(=O)OCC(COC(=O)CCCCCCC/C=C\C/C=C\CCCCC)OC(=O)CCC(CCCCCCCCCCCC)OC(=O)OCCC1CCCN1C (centres unmarked) [Compound 16, 2-((4-(((2-(1-methylpyrrolidin-2-yl)ethoxy)carbonyl)oxy)hexadecanoyl)oxy) propane-1,3-diyl (9Z,9′Z,12Z,12′Z)-bis(octadeca-9,12-dienoate)] |  |  |  | 10.1
8 | 6.52 | CCCCC/C=C\C/C=C\CCCCCCCC(=O)OCC(COC(=O)CCCCCCC/C=C\C/C=C\CCCCC)OC(=O)CCC(CCCC)OC(=O)NCCN(C)CC (centres unmarked) [Compound 42, 2-((4-(((2-(ethyl(methyl)amino)ethyl)carbamoyl)oxy)octanoyl)oxy)propane-1,3-diyl (9Z,9′Z,12Z,12′Z)-bis(octadeca-9,12-dienoate)] | 21.6 | 473 | 58 | 
9 | 5.99 | CCCCC/C=C\C/C=C\CCCCCCCC(=O)OCC(COC(=O)CCCCCCC/C=C\C/C=C\CCCCC)OC(=O)CCC(CCCCCCCCCCCCCCCC)OC(=O)OCCCN1CCCC1 (centres unmarked) [Compound 19, 2-((4-(((3-(pyrrolidin-1-yl)propoxy)carbonyl)oxy)icosanoyl)oxy)propane-1,3-diyl (9Z,9′Z,12Z,12′Z)-bis(octadeca-9,12-dienoate)] |  |  |  | 13.0
10 | 6.17 | CCCCC/C=C\C/C=C\CCCCCCCC(=O)OCC(COC(=O)CCCCCCC/C=C\C/C=C\CCCCC)OC(=O)CCC(CCCCCCCCCCCCCCCC)OC(=O)NCCN(C)CC (centres unmarked) [Compound 20, 2-((4-(((2-(ethyl(methyl)amino)ethyl)carbamoyl)oxy)icosanoyl)oxy)propane-1,3-diyl (9Z,9′Z,12Z,12′Z)-bis(octadeca-9,12-dienoate)] |  |  |  | 15.4
11 | 6.93 | CCCCC/C=C\C/C=C\CCCCCCCC(=O)OCC(COC(=O)CCCCCCC/C=C\C/C=C\CCCCC)OC(=O)NCCN(C)CC [Compound 114, 2-(((2-(ethyl(methyl)amino)ethyl)carbamoyl)oxy)propane-1,3-diyl (9Z,9′Z,12Z,12′Z)-bis(octadeca-9,12-dienoate), reference compound] | 0.8 | 637 | 78 | 
12 | 6.12 | CCCCC/C=C\C/C=C\CCCCCCCC(=O)OCC(COC(=O)CCCCCCC/C=C\C/C=C\CCCCC)OC(=O)CCC(CCCCCCCCCCCCCCCC)OC(=O)NCC1CCCN1C (centres unmarked) [Compound 21, 2-((4-((((1-methylpyrrolidin-2-yl)methyl)carbamoyl)oxy)icosanoyl)oxy)propane-1,3-diyl (9Z,9′Z,12Z,12′Z)-bis(octadeca-9,12-dienoate)] |  |  |  | 12.1
13 | 6.18 | CCCCC/C=C\C/C=C\CCCCCCCC(=O)OCC(COC(=O)CCCCCCC/C=C\C/C=C\CCCCC)OC(=O)CCC(CCCCCCCCCCCCCCCC)OC(=O)OCCCN(C)C (centres unmarked) [Compound 17, 2-((4-(((3-(dimethylamino)propoxy)carbonyl)oxy)icosanoyl)oxy)propane-1,3-diyl (9Z,9′Z,12Z,12′Z)-bis(octadeca-9,12-dienoate)] |  |  |  | 12.3
14 | 6.05 | CCCCC/C=C\C/C=C\CCCCCCCC(=O)OCC(COC(=O)CCCCCCC/C=C\C/C=C\CCCCC)OC(=O)CCC(CCCCCCCCCCCC)OC(=O)C1(C)CCN(C)CC1 (centres unmarked) [Compound 10, 2-((4-((1,4-dimethylpiperidine-4-carbonyl)oxy)hexadecanoyl)oxy)propane-1,3-diyl (9Z,9′Z,12Z,12′Z)-bis(octadeca-9,12-dienoate)] |  |  |  | 5.3

Row | SMILES | pKa [1] | Editing Mean % Indel (mouse TTR gene) [%] | Serum TTR (mouse TTR) [µg/mL] | Serum TTR % TSS (mouse TTR) [% TSS] | Editing Mean % Indel (mouse B2M gene) [%]
15 | CCCCC/C=C\C/C=C\CCCCCCCC(=O)OCC(COC(=O)CCCCCCC/C=C\C/C=C\CCCCC)OC(=O)CCC(CCCCCCCCCCCC)OC(=O)OCCCCN(CC)CC (centres unmarked) [Compound 14, 2-((4-(((4-(diethylamino)butoxy)carbonyl)oxy)hexadecanoyl)oxy)propane-1,3-diyl (9Z,9′Z,12Z,12′Z)-bis(octadeca-9,12-dienoate)] | 5.91 |  |  |  | 20.6
